# Calls of active or inactive are those of the source.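 The calls were made as follows: active = IC50 at or below 20 µM; inactive = the rest.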
# Target: Glucose-6-phosphate 1-dehydrogenase (Homo sapiens) (UniProt P11413)
# Experiment: human G6PD enzyme inhibition selectivity, SAR follow-up, selectivity assay for PfG6PD antimalarial inhibitor project, biochemical, fluorescence, dose response, set 3 (AID 602130)
# Details: NADPH resazurin-diaphorase fluorescence
# Glucose-6-phosphate 1-dehydrogenase (Homo sapiens), sequence (P11413 whole entry, looked up): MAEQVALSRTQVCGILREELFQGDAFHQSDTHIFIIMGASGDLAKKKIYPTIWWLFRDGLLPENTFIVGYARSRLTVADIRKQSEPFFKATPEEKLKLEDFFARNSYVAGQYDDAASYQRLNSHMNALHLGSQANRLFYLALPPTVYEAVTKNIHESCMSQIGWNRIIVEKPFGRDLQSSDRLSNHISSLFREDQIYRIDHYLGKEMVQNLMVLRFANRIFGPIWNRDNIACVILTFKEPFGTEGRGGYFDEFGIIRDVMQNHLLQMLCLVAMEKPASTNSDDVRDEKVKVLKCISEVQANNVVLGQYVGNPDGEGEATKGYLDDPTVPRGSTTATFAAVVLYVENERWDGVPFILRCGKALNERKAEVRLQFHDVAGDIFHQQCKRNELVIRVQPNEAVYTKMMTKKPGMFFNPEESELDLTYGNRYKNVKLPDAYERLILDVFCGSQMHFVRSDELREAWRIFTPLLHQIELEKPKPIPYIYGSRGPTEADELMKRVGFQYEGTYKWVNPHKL
row,IC50,SMILES
1,> 80 µM (inactive),CCN(CC)CCCC(C)Nc1ccnc2cc(Cl)ccc12 (centres undefined)
2,> 80 µM (inactive),O=C(NCCN1CCCCC1)c1ccc2c(c1)NC(=O)c1ccccc1S2
3,> 80 µM (inactive),CCN1CCCC1CNC(=O)c1ccc2c(c1)NC(=O)/C(=C/c1cccc(F)c1F)S2 (centres undefined)
4,> 80 µM (inactive),CCN1CCCC1CNC(=O)c1ccc2c(c1)NC(=O)C(Cc1ccccc1F)S2 (centres undefined)
5,> 80 µM (inactive),CCN1CCCC1CNC(=O)c1ccc2c(c1)NC(=O)/C(=C/c1ccc(F)cc1)S2 (centres undefined)
6,> 80 µM (inactive),CCN1CCC[C@@H]1CNC(=O)c1ccc2c(c1)NC(=O)c1ccccc1S2
7,> 80 µM (inactive),NCCNC(=O)c1ccc2c(c1)NC(=O)c1ccccc1S2
8,> 80 µM (inactive),O=C(NCCNC1CCCCC1)c1ccc2c(c1)NC(=O)c1ccccc1S2
9,> 80 µM (inactive),CCN1CCCC1CNC(=O)c1ccc2c(c1)NC(=O)/C(=C/c1c(F)cccc1F)S2 (centres undefined)
10,> 80 µM (inactive),NC1CCN(C(=O)c2ccc3c(c2)NC(=O)/C(=C/c2ccccc2F)S3)C1 (centres undefined)
11,> 80 µM (inactive),O=C1Nc2cc(C(=O)NCC3CCCN3)ccc2S/C1=C\c1ccccc1F (centres undefined)
12,> 80 µM (inactive),NC1CCN(C(=O)c2ccc3c(c2)NC(=O)c2ccccc2S3)C1 (centres undefined)
13,> 80 µM (inactive),CCN(CC)CCNC(=O)c1ccc2c(c1)NC(=O)/C(=C/c1ccccc1F)S2
14,> 80 µM (inactive),CC(C)(C)OC(=O)N1CCCC1CNC(=O)c1ccc2c(c1)NC(=O)/C(=C/c1ccccc1F)S2 (centres undefined)
15,> 80 µM (inactive),CCCN1CCCC1CNC(=O)c1ccc2c(c1)NC(=O)/C(=C/c1ccccc1F)S2 (centres undefined)
16,> 80 µM (inactive),CCC(C)N(CCNC(=O)c1ccc2c(c1)NC(=O)c1ccccc1S2)C1CCCCC1 (centres undefined)
17,> 80 µM (inactive),O=C(NCCN1CCOCC1)c1ccc2c(c1)NC(=O)c1ccccc1S2
18,> 80 µM (inactive),CN(C)c1ccccc1CNC(=O)c1ccc2c(c1)NC(=O)/C(=C/c1ccccc1F)S2
19,> 80 µM (inactive),CCN1CCCC1CNC(=O)c1ccc2c(c1)NC(=O)/C(=C/c1cccc(F)c1)S2 (centres undefined)
20,> 80 µM (inactive),CCN1CCCC1CNC(=O)c1ccc2c(c1)NC(=O)/C(=C/c1ccc3ccccc3c1)S2 (centres undefined)
21,> 80 µM (inactive),CCN1CCC[C@H]1CNC(=O)c1ccc2c(c1)NC(=O)c1ccccc1S2
22,> 80 µM (inactive),CCC(C)N1CCCC1CNC(=O)c1ccc2c(c1)NC(=O)c1ccccc1S2 (centres undefined)
23,> 80 µM (inactive),CCN1CCC[C@H]1CNC(=O)c1ccc2c(c1)NC(=O)/C(=C/c1ccccc1F)S2
24,> 80 µM (inactive),CCN1CCC[C@@H]1CNC(=O)c1ccc2c(c1)NC(=O)/C(=C/c1ccccc1F)S2

# Reference: PubChem BioAssay AID602130 (Sanford-Burnham Center for Chemical Genomics, 2011)
